The assay has as its target human activated kallikrein enzyme (Homo sapiens (Human), UniProt P03952). The assay can be described thus: Plasma kallikrein inhibition assay with fluorogenic peptide substrate, 500 pM activated kallikrein format. It is filed as biochemical. To be noted: 500 pM activated kallikrein; 300 uM Pro-Phe-Arg-7-amido-4-methylcoumarin substrate; 30 min preincubation, 10 min reaction at RT; read-out: Primary Dose Response Assay: Average EC50. Put shortly:
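Pro-Phe-Arg-7-amido-4-methylcoumarin substrate (300 uM) started reactions after a 30 min RT enzyme–inhibitor preincubation. This format used 500 pM activated human kallikrein in Tris pH 7.5 buffer with EDTA, NaCl, PEG-400 and Triton X-100. AMC fluorescence (380/460 nm) was measured after 10 min at RT.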
Chain of human activated kallikrein enzyme (P03952 391-638): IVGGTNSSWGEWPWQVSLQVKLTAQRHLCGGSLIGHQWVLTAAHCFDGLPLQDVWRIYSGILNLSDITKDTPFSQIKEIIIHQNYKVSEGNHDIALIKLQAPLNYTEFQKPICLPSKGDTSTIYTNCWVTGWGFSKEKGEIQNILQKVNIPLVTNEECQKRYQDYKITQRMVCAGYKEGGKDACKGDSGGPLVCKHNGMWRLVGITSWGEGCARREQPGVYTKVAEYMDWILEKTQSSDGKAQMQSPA
Chain of human activated kallikrein enzyme (P03952 20-390 partner): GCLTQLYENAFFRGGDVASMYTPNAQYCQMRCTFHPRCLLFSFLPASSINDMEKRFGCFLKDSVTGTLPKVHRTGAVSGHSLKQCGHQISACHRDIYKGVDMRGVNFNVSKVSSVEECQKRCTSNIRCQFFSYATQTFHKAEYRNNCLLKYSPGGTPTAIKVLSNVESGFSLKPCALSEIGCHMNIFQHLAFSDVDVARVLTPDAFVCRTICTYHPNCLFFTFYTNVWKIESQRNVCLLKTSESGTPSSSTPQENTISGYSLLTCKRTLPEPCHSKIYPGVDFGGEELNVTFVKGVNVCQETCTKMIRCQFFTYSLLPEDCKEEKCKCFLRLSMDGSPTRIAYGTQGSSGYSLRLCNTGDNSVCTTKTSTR
Turning to `O=C(NCc1ccc2[nH]cc(Cl)c2c1)c1cn(Cc2cn3cc(C4CC4)ccc3n2)nn1` [Example I-65, N-((3-chloro-1H-indol-5-yl)methyl)-1-((6-cyclopropylimidazo[1,2-a]pyridin-2-yl)methyl)-1H-1,2,3-triazole-4-carboxamide], the EC50 lay within 10 to 100 nM.

Consider `COc1ccc(-n2cnnn2)c(CN(C)C(=O)c2cn(Cc3cn4cc(C5CC5)ccc4n3)nn2)c1F` [Example I-66, 1-((6-cyclopropylimidazo[1,2-a]pyridin-2-yl)methyl)-N-(2-fluoro-3-methoxy-6-(1H-tetrazol-1-yl)benzyl)-N-methyl-1H-1,2,3-triazole-4-carboxamide], for which the half-maximal effective concentration (EC50) lay within 100 to 2000 nM.

As to `COc1ccc(-c2cn[nH]c2)c(CNC(=O)c2cn(Cc3cn4cc(C5CC5)ccc4n3)nn2)c1F` [Example I-67, 1-((6-cyclopropylimidazo[1,2-a]pyridin-2-yl)methyl)-N-(2-fluoro-3-methoxy-6-(1H-pyrazol-4-yl)benzyl)-1H-1,2,3-triazole-4-carboxamide], the EC50 lay in the range of 1 to 10 nM.

Consider `COc1ccc(-n2cnnn2)c(CNC(=O)c2cn(Cc3cn4cc(C5CC5)cc(CC5COC5)c4n3)nn2)c1F` [Example I-68, 1-((6-cyclopropyl-8-(oxetan-3-ylmethyl)imidazo[1,2-a]pyridin-2-yl)methyl)-N-(2-fluoro-3-methoxy-6-(1H-tetrazol-1-yl)benzyl)-1H-1,2,3-triazole-4-carboxamide], for which the EC50 is no more than 1 nM.

`COc1ccc(-n2cnnn2)c(CNC(=O)c2nnn(Cc3cn4cc(C5CC5)cc(F)c4n3)n2)c1F` [Example I-69, 2-((6-cyclopropyl-8-fluoroimidazo[1,2-a]pyridin-2-yl)methyl)-N-(2-fluoro-3-methoxy-6-(1H-tetrazol-1-yl)benzyl)-2H-tetrazole-5-carboxamide]: the EC50 is no more than 1 nM.

In the case of `COc1ccc(-c2cn3ccccc3n2)c(CNC(=O)c2cn(Cc3cn4cc(C5CC5)ccc4n3)nn2)c1F` [Example I-70, 1-((6-cyclopropylimidazo[1,2-a]pyridin-2-yl)methyl)-N-(2-fluoro-6-(imidazo[1,2-a]pyridin-2-yl)-3-methoxybenzyl)-1H-1,2,3-triazole-4-carboxamide], the EC50 is 10 to 100 nM.

For the molecule `COc1ccc(-n2cnnn2)c(CNC(=O)c2cn(Cc3cn4cc(C5CC5)cc(-n5cnnc5)c4n3)nn2)c1F` [Example I-71, 1-((6-cyclopropyl-8-(4H-1,2,4-triazol-4-yl)imidazo[1,2-a]pyridin-2-yl)methyl)-N-(2-fluoro-3-methoxy-6-(1H-tetrazol-1-yl)benzyl)-1H-1,2,3-triazole-4-carboxamide], the concentration giving a half-maximal response (EC50) is no more than 1 nM.

Consider `COc1ncc(C#N)c(CNC(=O)c2cn(Cc3cn4cc(C5CC5)ccc4n3)nn2)c1F` [Example I-72, N-((5-cyano-3-fluoro-2-methoxypyridin-4-yl)methyl)-1-((6-cyclopropylimidazo[1,2-a]pyridin-2-yl)methyl)-1H-1,2,3-triazole-4-carboxamide], for which the EC50 was in the range of 100 to 2000 nM.

On to `COc1ccc(-n2cc(C)c(C)n2)c(CNC(=O)c2cn(Cc3cn4cc(C5CC5)ccc4n3)nn2)c1F` [Example I-73, 1-((6-cyclopropylimidazo[1,2-a]pyridin-2-yl)methyl)-N-(6-(3,4-dimethyl-1H-pyrazol-1-yl)-2-fluoro-3-methoxybenzyl)-1H-1,2,3-triazole-4-carboxamide], for which the EC50 lay within 10 to 100 nM.

As to `COc1ccc(-c2cnc(C(=O)O)nc2)c(CNC(=O)c2cn(Cc3cn4cc(C5CC5)ccc4n3)nn2)c1F` [Example I-74, 5-(2-((1-((6-cyclopropylimidazo[1,2-a]pyridin-2-yl)methyl)-1H-1,2,3-triazole-4-carboxamido)methyl)-3-fluoro-4-methoxyphenyl)pyrimidine-2-carboxylic Acid], the 50% effective concentration (EC50) was 1 to 10 nM.

As to `COC(=O)c1ncc(-c2ccc(OC)c(F)c2CNC(=O)c2cn(Cc3cn4cc(C5CC5)ccc4n3)nn2)cn1` [Example I-75, Methyl 5-(2-((1-((6-cyclopropylimidazo[1,2-a]pyridin-2-yl)methyl)-1H-1,2,3-triazole-4-carboxamido)methyl)-3-fluoro-4-methoxyphenyl)pyrimidine-2-carboxylate], the EC50 is 1 to 10 nM.

With `COc1ccc(-n2ccnn2)c(CNC(=O)c2cn(Cc3cn4cc(C5CC5)ccc4n3)nn2)c1F` [Example I-76, 1-((6-cyclopropylimidazo[1,2-a]pyridin-2-yl)methyl)-N-(2-fluoro-3-methoxy-6-(1H-1,2,3-triazol-1-yl)benzyl)-1H-1,2,3-triazole-4-carboxamide], the concentration giving a half-maximal response (EC50) is no more than 1 nM.

On to `O=C(NCc1cc2ccc(Cl)cc2s1)c1cn(Cc2cn3cc(C4CC4)ccc3n2)nn1` [Example I-77, N-((6-chlorobenzo[b]thiophen-2-yl)methyl)-1-((6-cyclopropylimidazo[1,2-a]pyridin-2-yl)methyl)-1H-1,2,3-triazole-4-carboxamide], for which the half-maximal effective concentration (EC50) was greater than 7100 nM.

As for `O=C(NCc1c(-n2cnnn2)ccc(C2CC2)c1F)c1cn(Cc2cn3cc(C4CC4)ccc3n2)nn1` [Example I-78, N-(3-cyclopropyl-2-fluoro-6-(1H-tetrazol-1-yl)benzyl)-1-((6-cyclopropylimidazo[1,2-a]pyridin-2-yl)methyl)-1H-1,2,3-triazole-4-carboxamide], the EC50 fell in the range of 10 to 100 nM.

Turning to `O=C(NCc1c(C(F)F)ccc(Cl)c1F)c1cn(Cc2cn3cc(C4CC4)ccc3n2)nn1` [Example I-79, N-(3-chloro-6-(difluoromethyl)-2-fluorobenzyl)-1-((6-cyclopropylimidazo[1,2-a]pyridin-2-yl)methyl)-1H-1,2,3-triazole-4-carboxamide], the 50% effective concentration (EC50) was in the range of 10 to 100 nM.

For the molecule `Cc1c(Cl)ccc(-n2cnnn2)c1CNC(=O)c1cn(Cc2cn3cc(C4CC4)ccc3n2)nn1` [Example I-80, N-(3-chloro-2-methyl-6-(1H-tetrazol-1-yl)benzyl)-1-((6-cyclopropylimidazo[1,2-a]pyridin-2-yl)methyl)-1H-1,2,3-triazole-4-carboxamide], the EC50 fell in the range of 100 to 2000 nM.

Turning to `COc1ccc(-n2cnnn2)c(CNC(=O)c2cn(Cc3cn4cc(C5CC5)cc(CC(C)(C)C(=O)O)c4n3)nn2)c1F` [Example I-81, 3-(6-cyclopropyl-2-((4-((2-fluoro-3-methoxy-6-(1H-tetrazol-1-yl)benzyl)carbamoyl)-1H-1,2,3-triazol-1-yl)methyl)imidazo[1,2-a]pyridin-8-yl)-2,2-dimethylpropanoic acid], the half-maximal effective concentration (EC50) is no more than 1 nM.

For `CCc1ccc(-n2cnnn2)c(CNC(=O)c2cn(Cc3cn4cc(C5CC5)ccc4n3)nn2)c1F` [Example I-83, 1-((6-cyclopropylimidazo[1,2-a]pyridin-2-yl)methyl)-N-(3-ethyl-2-fluoro-6-(1H-tetrazol-1-yl)benzyl)-1H-1,2,3-triazole-4-carboxamide], the concentration for a half-maximal effect (EC50) fell in the range of 10 to 100 nM.

In the case of `O=C(NCc1ccc2sccc2c1)c1cn(Cc2cn3cc(C4CC4)ccc3n2)nn1` [Example I-84, N-(benzo[b]thiophen-5-ylmethyl)-1-((6-cyclopropylimidazo[1,2-a]pyridin-2-yl)methyl)-1H-1,2,3-triazole-4-carboxamide], the EC50 lay in the range of 100 to 2000 nM.

For `CCOC(=O)C(C)(C)Cc1cc(C2CC2)cn2cc(Cn3cc(C(=O)NCc4c(-n5cnnn5)ccc(OC)c4F)nn3)nc12` [Example I-85, ethyl 3-(6-cyclopropyl-2-((4-((2-fluoro-3-methoxy-6-(1H-tetrazol-1-yl)benzyl)carbamoyl)-1H-1,2,3-triazol-1-yl)methyl)imidazo[1,2-a]pyridin-8-yl)-2,2-dimethylpropanoate], the EC50 is no more than 1 nM.

For the molecule `COc1ccc(-c2ccnnc2)c(CNC(=O)c2cn(Cc3cn4cc(C5CC5)ccc4n3)nn2)c1F` [Example I-86, 1-((6-cyclopropylimidazo[1,2-a]pyridin-2-yl)methyl)-N-(2-fluoro-3-methoxy-6-(pyridazin-4-yl)benzyl)-1H-1,2,3-triazole-4-carboxamide], the EC50 lay within 1 to 10 nM.

Consider `COC(=O)c1ccc(-c2ccc(OC)c(F)c2CNC(=O)c2cn(Cc3cn4cc(C5CC5)ccc4n3)nn2)cc1` [Example I-87, Methyl 2′-((1-((6-cyclopropylimidazo[1,2-a]pyridin-2-yl)methyl)-1H-1,2,3-triazole-4-carboxamido)methyl)-3′-fluoro-4′-methoxy-[1,1′-biphenyl]-4-carboxylate], for which the EC50 fell in the range of 10 to 100 nM.

In the case of `COc1ccc(-c2ccc(C(=O)O)cc2)c(CNC(=O)c2cn(Cc3cn4cc(C5CC5)ccc4n3)nn2)c1F` [Example I-88, 2′-((1-((6-cyclopropylimidazo[1,2-a]pyridin-2-yl)methyl)-1H-1,2,3-triazole-4-carboxamido)methyl)-3′-fluoro-4′-methoxy-[1,1′-biphenyl]-4-carboxylic acid], the concentration for a half-maximal effect (EC50) was in the range of 1 to 10 nM.

For the molecule `CCOC(=O)CCc1cc(C2CC2)cn2cc(Cn3cc(C(=O)NCc4c(-n5cnnn5)ccc(OC)c4F)nn3)nc12` [Example I-89, ethyl 3-(6-cyclopropyl-2-((4-((2-fluoro-3-methoxy-6-(1H-tetrazol-1-yl)benzyl)carbamoyl)-1H-1,2,3-triazol-1-yl)methyl)imidazo[1,2-a]pyridin-8-yl)propanoate], the concentration giving a half-maximal response (EC50) was no more than 1 nM.

As to `O=C(NCc1c(-n2cnnn2)ccc(Br)c1F)c1cn(Cc2cn3cc(C4CC4)ccc3n2)nn1` [Example I-90, N-(3-bromo-2-fluoro-6-(1H-tetrazol-1-yl)benzyl)-1-((6-cyclopropylimidazo[1,2-a]pyridin-2-yl)methyl)-1H-1,2,3-triazole-4-carboxamide], the concentration for a half-maximal effect (EC50) is no more than 1 nM.

For the molecule `COc1ccc(-n2cnnn2)c(CNC(=O)c2cn(Cc3cn4cc(C5CC5)cc(C5(F)COC5)c4n3)nn2)c1F` [Example I-91, 1-((6-cyclopropyl-8-(3-fluorooxetan-3-yl)imidazo[1,2-a]pyridin-2-yl)methyl)-N-(2-fluoro-3-methoxy-6-(1H-tetrazol-1-yl)benzyl)-1H-1,2,3-triazole-4-carboxamide], the EC50 is no more than 1 nM.

In general, EC50 refers to the concentration giving half of the maximal effect.

These data come from patent publication US11787796B2, “Plasma Kallikrein inhibitors and uses thereof” (Takeda Pharmaceutical Company Limited, priority 2019, dated 2023).
